From the CheMixHub viscosity set

Assay: xn = mol fraction of the nth substance listed

CC[N+](=O)[O-] + CCO
viscosity [mPa·s], 101.33 kPa
Conditions | 293.15 K | 303.15 K | 313.15 K
x2 = 0.05 | 0.669 | 0.598 | 0.538
x2 = 0.1001 | 0.655 | 0.584 | 0.526
x2 = 0.15 | 0.648 | 0.576 | 0.519
x2 = 0.2 | 0.645 | 0.573 | 0.512
x2 = 0.25 | 0.65 | 0.57 | 0.507
x2 = 0.3 | 0.651 | 0.571 | 0.506
x2 = 0.35 | 0.658 | 0.575 | 0.509
x2 = 0.4 | 0.668 | 0.583 | 0.513
x2 = 0.45 | 0.681 | 0.593 | 0.519
x2 = 0.5 | 0.697 | 0.603 | 0.528
x2 = 0.55 | 0.716 | 0.618 | 0.538
x2 = 0.6 | 0.738 | 0.636 | 0.55
x2 = 0.65 | 0.769 | 0.656 | 0.567
x2 = 0.7 | 0.804 | 0.682 | 0.586
x2 = 0.7499 | 0.839 | 0.712 | 0.608
x2 = 0.8 | 0.886 | 0.748 | 0.637
x2 = 0.8499 | 0.944 | 0.793 | 0.672
x2 = 0.9 | 1.015 | 0.847 | 0.715
x2 = 0.9499 | 1.103 | 0.914 | 0.77

CCCCN + CCCCN(CCCC)CCCC
viscosity [mPa·s], 101 kPa
Conditions | x2 = 0.0993 | x2 = 0.193 | x2 = 0.3946 | x2 = 0.4948 | x2 = 0.5888 | x2 = 0.7738 | x2 = 0.8887
303.15 K | 0.5014 | 0.566 | 0.7175 | 0.7961 | 0.8701 | 1.013 | 1.094
313.15 K | 0.4423 | 0.4968 | 0.6233 | 0.688 | 0.7498 | 0.8682 | 0.9377

CCCCCCCCCC(=O)OCC + CCCCO
viscosity [mPa·s], 100 kPa
Conditions | x1 = 0.1006 | x1 = 0.2001 | x1 = 0.3011 | x1 = 0.3996 | x1 = 0.4999 | x1 = 0.6021 | x1 = 0.7009 | x1 = 0.7986 | x1 = 0.9001
293.15 K | 2.504 | 2.299 | 2.212 | 2.15 | 2.125 | 2.139 | 2.168 | 2.2 | 2.258
298.15 K | 2.217 | 2.037 | 1.967 | 1.916 | 1.914 | 1.921 | 1.962 | 1.984 | 2.047
303.15 K | 1.977 | 1.825 | 1.769 | 1.733 | 1.727 | 1.738 | 1.777 | 1.798 | 1.854
308.15 K | 1.764 | 1.643 | 1.596 | 1.568 | 1.569 | 1.581 | 1.608 | 1.639 | 1.687
313.15 K | 1.581 | 1.488 | 1.455 | 1.433 | 1.431 | 1.444 | 1.469 | 1.501 | 1.543
318.15 K | 1.424 | 1.344 | 1.322 | 1.305 | 1.31 | 1.324 | 1.355 | 1.379 | 1.42
